Results reported in article PMC8565742 (PLoS Neglected Tropical Diseases, 2021).
Read-outs that look alike come from different tables or passages of the source.

Assays:
[1] = system: untransfected HEK293 cells; assay: Counterscreen, agonist mode, Ca2+ signal in untransfected HEK cells; assay type: cell-based; details: for EC50: Homo sapiens, HEK293, unit inferred, read-out: HEK AG Final EC50; for EC50 / HEK AG Averaged Max % Response: counterscreen titration
Protocol: (§1) HEK cells were transfected with cDNA (400μg/ml DNA) encoding Sm.TRPMPZQ using a Maxcyte STX electroporation system and incubated overnight at 37°C. This system is uniquely capabable of large scale transfections providing one batch of cells ready for large scale HTS [30]. Briefly, the HEK cells were resuspended at 10^8/ml in Maxcyte electroporation buffer. Plasmid DNA was added to the cells in buffer to achieve a concentration of 400 μg/ml from a stock of 5mg/ml (in TE buffer). This mixture was loaded into the appropriate cassette, inserted into the machine, and cells electroporated. Cells were then frozen to provide a single supply of transfected cells for all subsequent assays. On the day of the assays, cells were thawed in a 37°C waterbath, and resuspended in DMEM + 10% FBS and counted. The cells were pelleted by centrifugation at 170xg for 5 minutes. The media was aspirated, and the remaining pellet was resuspended in 1x HBSS with 20 mM HEPES and 1% DMSO to achieve 1.33x10^6cells/ml. This cell suspension was then dispensed at 3 μl/well to the 1536 well plates (Greiner Bio One part 789072) at a density of 4,000 cells/well. Measurements of fluorescence intensity (λex = 470 nm, λem = 535 nm) were made using a FLIPR (Molecular Devices FLIPR Tetra). A read of basal fluorescence values was made (5s) prior to addition of compounds or controls (30 nl). In both ‘agonist’ and ‘antagonist mode’, the total assay volume was 6μl (1% DMSO). […] Ligand performance was categorized using an algorithm based on the activity of the entire dataset to define a ‘hit-cutoff’ parameter for both agonist-mode and antagonist-mode screening. Any compound with greater percent activation than this cutoff was assigned as ‘active’ prior to titration and counter-screening. Titration assays were executed using the same reagents, protocols and detection systems, done as 10-point concentration-response curves, performed in triplicate. Counter-screening was performed using untransfected HEK293 cells for comparison with results testing the same compounds effect on cells expressing Sm.TRPMPZQ, with ATP used as the positive control. For each compound, activity was plotted against compound concentration and data were fitted with a sigmoidal function. In order to be considered a hit at this stage a compound must achieve a EC50<5 μM for agonists and IC50 <5 μM for antagonists. All compounds selected for titration were subjected to LC-MS analysis to confirm mass and sample purity. ChemAxon (https://www.chemaxon.com) academic licensing was provided for the use of Instant JChem (ver. 15.10.12.0) to perform compound mining of the libraries utilized in this effort.

Sm.TRPMPZQ = Sm.TRPMPZQ (Schistosoma mansoni, UniProt A0A5K4F0X5); assay: cell-based
Protocol: as §1, with “Any compound with greater percent activation than this cutoff was assigned as ‘active’ prior to titration and counter-screening.” left out, “In order to be considered a hit at this stage a compound must achieve a EC50<5 μM for agonists and IC50 <5 μM for antagonists. All compounds selected for titration were subjected to LC-MS analysis to confirm mass and sample purity.” left out

[2] = system: untransfected HEK293 cells; assay: Counterscreen, antagonist mode, Ca2+ signal in untransfected HEK cells; assay type: cell-based; details: counterscreen titration; for EC50: Homo sapiens, HEK293, unit inferred, read-out: HEK ANT Final EC50
Protocol: as §1

[3] = S2 Table, listed as SR-01000003100-3
[4] = S2 Table, listed as SR-01000003100-19
[5] = S2 Table, titration, listed as SR-01000003100-19

Sequence of Sm.TRPMPZQ (A0A5K4F0X5 entry or part of it): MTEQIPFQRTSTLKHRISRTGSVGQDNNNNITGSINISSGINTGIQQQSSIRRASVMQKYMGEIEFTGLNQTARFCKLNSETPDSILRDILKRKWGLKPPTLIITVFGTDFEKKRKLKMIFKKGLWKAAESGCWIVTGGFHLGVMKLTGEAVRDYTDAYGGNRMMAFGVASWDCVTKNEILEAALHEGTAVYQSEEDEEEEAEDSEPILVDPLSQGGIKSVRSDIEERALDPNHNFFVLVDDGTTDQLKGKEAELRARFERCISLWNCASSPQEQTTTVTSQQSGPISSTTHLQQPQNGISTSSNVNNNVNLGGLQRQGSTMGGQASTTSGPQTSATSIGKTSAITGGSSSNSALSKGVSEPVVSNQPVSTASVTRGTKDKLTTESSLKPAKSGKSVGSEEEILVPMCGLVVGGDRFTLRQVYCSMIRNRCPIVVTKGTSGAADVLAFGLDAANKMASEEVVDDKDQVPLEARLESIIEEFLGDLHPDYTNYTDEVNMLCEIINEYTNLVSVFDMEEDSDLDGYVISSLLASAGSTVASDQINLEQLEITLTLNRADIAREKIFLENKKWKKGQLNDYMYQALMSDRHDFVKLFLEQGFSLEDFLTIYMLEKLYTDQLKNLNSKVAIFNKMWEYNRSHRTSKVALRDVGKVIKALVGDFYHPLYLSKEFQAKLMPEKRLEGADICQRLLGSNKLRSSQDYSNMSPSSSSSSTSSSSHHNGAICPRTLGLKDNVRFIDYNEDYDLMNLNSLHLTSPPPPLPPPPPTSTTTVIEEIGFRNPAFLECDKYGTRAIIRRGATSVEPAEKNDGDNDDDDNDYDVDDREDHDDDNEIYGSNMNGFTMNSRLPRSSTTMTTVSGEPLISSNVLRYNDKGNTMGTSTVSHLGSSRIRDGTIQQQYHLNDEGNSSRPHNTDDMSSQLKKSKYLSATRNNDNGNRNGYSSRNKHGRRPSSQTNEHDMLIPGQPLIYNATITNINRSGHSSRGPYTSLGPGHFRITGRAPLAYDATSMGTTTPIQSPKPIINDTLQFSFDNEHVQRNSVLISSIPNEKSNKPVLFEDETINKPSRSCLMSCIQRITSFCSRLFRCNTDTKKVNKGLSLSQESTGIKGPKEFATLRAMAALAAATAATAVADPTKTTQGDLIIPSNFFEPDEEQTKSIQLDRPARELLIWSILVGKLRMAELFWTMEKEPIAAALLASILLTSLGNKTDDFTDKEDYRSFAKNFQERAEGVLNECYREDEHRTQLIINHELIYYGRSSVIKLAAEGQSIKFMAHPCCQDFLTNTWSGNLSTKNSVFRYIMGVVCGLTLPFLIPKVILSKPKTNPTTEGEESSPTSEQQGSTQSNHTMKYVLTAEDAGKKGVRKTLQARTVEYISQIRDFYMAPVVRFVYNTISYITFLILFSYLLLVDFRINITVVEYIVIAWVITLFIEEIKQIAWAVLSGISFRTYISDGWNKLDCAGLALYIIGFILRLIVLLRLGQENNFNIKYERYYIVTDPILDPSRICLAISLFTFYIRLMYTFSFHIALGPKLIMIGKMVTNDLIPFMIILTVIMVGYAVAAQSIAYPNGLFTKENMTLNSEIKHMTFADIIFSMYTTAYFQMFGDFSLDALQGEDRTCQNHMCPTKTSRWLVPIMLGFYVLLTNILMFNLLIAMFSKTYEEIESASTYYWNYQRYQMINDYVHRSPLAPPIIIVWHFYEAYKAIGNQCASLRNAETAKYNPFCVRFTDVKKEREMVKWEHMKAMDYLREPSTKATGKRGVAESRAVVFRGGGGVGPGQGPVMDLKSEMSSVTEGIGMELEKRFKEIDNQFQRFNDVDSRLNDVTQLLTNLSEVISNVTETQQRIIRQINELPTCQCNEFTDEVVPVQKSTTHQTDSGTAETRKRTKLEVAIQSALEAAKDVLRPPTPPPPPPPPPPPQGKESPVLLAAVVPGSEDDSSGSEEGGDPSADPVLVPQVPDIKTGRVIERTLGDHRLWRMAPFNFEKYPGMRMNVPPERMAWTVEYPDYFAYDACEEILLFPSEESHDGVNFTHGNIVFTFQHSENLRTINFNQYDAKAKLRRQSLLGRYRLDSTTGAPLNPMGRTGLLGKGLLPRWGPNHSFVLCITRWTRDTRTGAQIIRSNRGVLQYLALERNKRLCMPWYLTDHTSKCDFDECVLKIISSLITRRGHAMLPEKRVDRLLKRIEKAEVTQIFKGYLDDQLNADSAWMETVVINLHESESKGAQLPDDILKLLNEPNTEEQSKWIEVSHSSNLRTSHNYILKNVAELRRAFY

COc1ccc(-c2nnc3ccc(-c4cccc(C(C)C)c4)cn23)cc1OC [AG1, 3-(3,4-Dimethoxyphenyl)-6-(3-propan-2-ylphenyl)-[1,2,4]triazolo[4,3-a]pyridine]
EC50 ([1]; S2 Table): > 12.4 µM | HEK AG Averaged Max % Response ([1]; S2 Table): 8.295% | activity on counter-screening in naïve HEK cells ([1]; concentration-response): no activity | Emax (Sm.TRPMPZQ; HEK293, S2 Table, titration, read-out: Sm.TRPMPZQ AG Averaged Max % Response): 97.5% | activation at 5 µM (Sm.TRPMPZQ; HEK293, read-out: Bmax, activation in primary screen): 93.9 ± 5.6% | EC50 (Sm.TRPMPZQ; S2 Table, 10-point titration in triplicate, unit inferred, read-out: Sm.TRPMPZQ AG Final EC50): 1.56 µM | Sm.TRPMPZQ AG Hill Slope (Sm.TRPMPZQ; S2 Table, titration): 1.659 | agonist efficacy (Sm.TRPMPZQ; concentration-response curve analysis): full agonist | EC50 (Sm.TRPMPZQ; concentration-response of library sample, Ca2+ flux, read-out: EC50): 1.6 ± 0.3 µM | EC50 (Sm.TRPMPZQ; re-sourced, independently procured sample, read-out: EC50): 9.2 µM | EC50 ([2]; S2 Table): 10.3 µM | HEK ANT Averaged Max % Response ([2]; S2 Table): 64.2957%

O=C(C1CCCCC1)N1CC(=O)N2CCc3ccccc3C2C1 (centres unmarked) [PZQ, praziquantel, reference compound]
EC50 ([1]; S2 Table): > 12.4 µM | HEK AG Averaged Max % Response [1, 3]: 2.271% | HEK AG Averaged Max % Response [1, 4]: 17.5496% | change in basal fluorescence ([1]; ≤30 μM, untransfected HEK293 cells): failed to elicit any change in basal fluorescence | Emax (Sm.TRPMPZQ; HEK293, read-out: Sm.TRPMPZQ AG Averaged Max % Response, S2 Table, titration): 80.3% | Sm.TRPMPZQ AG Hill Slope (Sm.TRPMPZQ; S2 Table, titration, listed as SR-01000003100-3): 1.753 | Sm.TRPMPZQ AG Averaged Max % Response (Sm.TRPMPZQ; [5]): 90.5499% | Sm.TRPMPZQ AG Hill Slope (Sm.TRPMPZQ; [5]): 1.657 | EC50 ([2]; S2 Table): > 12.4 µM | HEK ANT Averaged Max % Response [2, 3]: 20.9575% | HEK ANT Averaged Max % Response [2, 4]: 9.578%

Cc1onc(-c2ccccc2)c1C(=O)N1CCN(C2c3ccccc3-c3ccccc32)CC1 [ANT1, 1-(9H-fluoren-9-yl)-4-(5-methyl-3-phenyl-1,2-oxazole-4-carbonyl)piperazine]
EC50 ([1]; S3 Table): > 12.4 µM | HEK AG Averaged Max % Response ([1]; S3 Table): 25.3604% | Emax (Sm.TRPMPZQ; HEK293, S3 Table, titration, read-out: Sm.TRPMPZQ AG Averaged Max % Response): 11.6% | EC50 (Sm.TRPMPZQ; S3 Table, 10-point titration in triplicate, unit inferred, read-out: Sm.TRPMPZQ AG Final EC50): > 12.4 µM | EC50 ([2]; S3 Table): > 12.4 µM | HEK ANT Averaged Max % Response ([2]; S3 Table): 43.1011%
